The results in this text go back to PubChem BioAssay (NCI).

Some test systems named below: NCI/ADR-RES ovarian; 786-0 renal; A549 NSCLC; MOLT-4 leukemia; LOX IMVI melanoma; SW-620 colon; BT-549 breast; MALME-3M melanoma.
Test in all cases: growth of human tumour cells (NCI), 48 h

Structures are written as SMILES. Values joined by “and” are separate entries in the source; they are usually repeats but may differ in a detail not shown here. Identical values can stand only once.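 Values below derive from 48-hour exposures of cells grown in 96-well plates, with endpoints linearly interpolated between the two concentrations bracketing the appropriate inhibition level. GI50 is the concentration that inhibits growth by half. At the TGI there is no net growth.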

With `C/C(=N\NC(=O)c1ccncc1)c1ccc(O)cc1O`, the GI50 in the experiment on NCI/ADR-RES ovarian is 3.42 µM; in the experiment with 786-0 renal, 5.84 µM; in the experiment on A549 NSCLC, 5.87 µM; in the experiment on MOLT-4 leukemia, 4.14 µM; in the experiment with LOX IMVI melanoma, 3.46 µM; with SW-620 colon, 7.68 µM. Moreover, the GI50 in the experiment with BT-549 breast is greater than 100 µM. Also, the TGI with NCI/ADR-RES ovarian, with 786-0 renal, with A549 NSCLC, in the experiment on MOLT-4 leukemia, in the experiment with LOX IMVI melanoma and in the experiment with SW-620 colon was greater than 100 µM throughout. Further, the TGI with BT-549 breast was greater than 100 µM.
`CCCN1CCN(c2ccc3nc(-c4ccc5nc(-c6ccc(OCC)c(OCC)c6)[nH]c5c4)[nH]c3c2)CC1`: the GI50 in the experiment with NCI/ADR-RES ovarian was greater than 100 µM; with 786-0 renal, 0.986 µM; with MALME-3M melanoma, 64.7 nM; in the experiment with A549 NSCLC, 0.808 µM; in the experiment with MOLT-4 leukemia it was 0.471 µM; in the experiment with LOX IMVI melanoma, 0.198 µM. Besides, the GI50 in the experiment on SW-620 colon was 0.207 µM; in the experiment with BT-549 breast, 1.13 µM. Moreover, the TGI in the experiment on NCI/ADR-RES ovarian is greater than 100 µM; in the experiment with 786-0 renal it was 2.33 µM; in the experiment with MALME-3M melanoma it was 1.19 µM; in the experiment with A549 NSCLC, 2.35 µM; in the experiment on MOLT-4 leukemia, 3.34 µM; in the experiment on LOX IMVI melanoma it was 0.461 µM. In addition, the TGI in the experiment with SW-620 colon was found to be 0.808 µM; in the experiment with BT-549 breast, 2.61 µM.
For `CC[C@]12CCCN3CC[C@]4(C(=C(C(=O)OC)C1)Nc1ccccc14)[C@@H]32`, the GI50 with NCI/ADR-RES ovarian is 14.3 µM; in the experiment on 786-0 renal, 13.9 µM; with MALME-3M melanoma, 13000 nM; in the experiment on A549 NSCLC, 16.3 µM; in the experiment on MOLT-4 leukemia, 18.8 µM; with LOX IMVI melanoma, 14.3 µM. Further, the GI50 with SW-620 colon was 16.2 µM; with BT-549 breast it was 19.8 µM. Further, the TGI in the experiment on NCI/ADR-RES ovarian was determined as 33.4 µM; in the experiment with 786-0 renal it was 29.1 µM; in the experiment on MALME-3M melanoma, 29.7 µM; in the experiment with A549 NSCLC it was 42.6 µM; in the experiment on MOLT-4 leukemia, 43.7 µM; with LOX IMVI melanoma it was 27.5 µM. Moreover, the TGI in the experiment on SW-620 colon was found to be 33.3 µM; with BT-549 breast it was 46.7 µM.
`CC/C=C\C/C=C\C[C@H]1C/C=C2/C(=O)C=C[C@H]2C/C=C\CCC(=O)O1`: the GI50 with NCI/ADR-RES ovarian was 4.7 µM; in the experiment on 786-0 renal, 3.13 µM; in the experiment on MALME-3M melanoma, 2850 nM; in the experiment on A549 NSCLC it was 3.96 µM; in the experiment with MOLT-4 leukemia it was 3.48 µM; in the experiment on LOX IMVI melanoma, 2.34 µM. For the same compound, the GI50 with SW-620 colon was 2.11 µM; in the experiment on BT-549 breast it was 3.68 µM. In addition, the TGI in the experiment with NCI/ADR-RES ovarian is greater than 14.3 µM; in the experiment on 786-0 renal it was 7.45 µM; in the experiment with MALME-3M melanoma, 8.8 µM; in the experiment with A549 NSCLC it was 12.2 µM; in the experiment with MOLT-4 leukemia, 10.5 µM; with LOX IMVI melanoma, 4.78 µM. The TGI with SW-620 colon was found to be 5.52 µM; in the experiment with BT-549 breast, 10.1 µM.
Consider `Cc1nn(-c2ccc(Br)cc2)c(C)c1CC(=O)c1cc(O)ccc1O`, for which the GI50 is 11.2 µM in the experiment with NCI/ADR-RES ovarian; 20.5 µM in the experiment on 786-0 renal; 10.5 µM with A549 NSCLC; 3.26 µM with MOLT-4 leukemia; 4.13 µM in the experiment on LOX IMVI melanoma; 14.4 µM in the experiment on SW-620 colon. In addition, the GI50 in the experiment with BT-549 breast was 15.8 µM. The TGI in the experiment with NCI/ADR-RES ovarian was 45.6 µM; in the experiment with 786-0 renal, greater than 50 µM; in the experiment on A549 NSCLC, 20.7 µM; in the experiment with MOLT-4 leukemia it was greater than 50 µM; with LOX IMVI melanoma it was 13.9 µM; with SW-620 colon, greater than 50 µM. In the experiment on BT-549 breast, this compound showed a TGI of 38.4 µM.
For the compound `CC(C)[C@@H]1CC[C@@H]2[C@@H]1[C@H](OC(=O)/C=C/c1ccccc1)[C@]1(C(C)C)C[C@@H](OC(=O)CO)[C@@]2(C)O1`, the GI50 with NCI/ADR-RES ovarian was 0.0795 µM; in the experiment on 786-0 renal, 4.55 µM; in the experiment with MALME-3M melanoma, 5970 nM; with A549 NSCLC, 6.61 µM; in the experiment on MOLT-4 leukemia it was 6.94 µM; in the experiment on LOX IMVI melanoma, 5.36 µM. The values for the GI50 in the experiment on SW-620 colon and in the experiment on BT-549 breast were 6.26 µM and 0.0375 µM, respectively. Besides, the TGI was 5 µM with NCI/ADR-RES ovarian; 9.23 µM in the experiment on 786-0 renal; 11.1 µM in the experiment on MALME-3M melanoma; 14.4 µM with A549 NSCLC; 14.9 µM in the experiment on MOLT-4 leukemia; 10.2 µM in the experiment on LOX IMVI melanoma. Further, the TGI in the experiment with SW-620 colon was 12.9 µM; in the experiment on BT-549 breast it was 4.38 µM.
As to `S=C(N/N=C(/c1ccccc1)c1ccccn1)Nc1cccc(Cl)c1`, the GI50 in the experiment with NCI/ADR-RES ovarian is 0.0619 µM; with 786-0 renal, 0.675 µM; with MALME-3M melanoma it was 16.9 nM; in the experiment on A549 NSCLC it was 1.82 µM; in the experiment with MOLT-4 leukemia, 0.00303 µM; in the experiment on LOX IMVI melanoma, 0.729 µM. In addition, the GI50 with SW-620 colon is 0.0444 µM. In addition, the TGI was 4.38 µM with NCI/ADR-RES ovarian; 2.51 µM and 5.56 µM with 786-0 renal; 2.22 µM and 5.37 µM with MALME-3M melanoma; 5.56 µM and 7.58 µM with A549 NSCLC; 3.72 µM and > 34 µM with LOX IMVI melanoma; 2.88 µM and 5.77 µM in the experiment on SW-620 colon. Moreover, the TGI in the experiment with BT-549 breast was 6.22 µM.
For the compound `O=C1c2ccccc2C(=O)c2c1ccc1c2OCO1`, the TGI in the experiment with NCI/ADR-RES ovarian, in the experiment with 786-0 renal, in the experiment on MALME-3M melanoma, in the experiment on A549 NSCLC, in the experiment on MOLT-4 leukemia and in the experiment on LOX IMVI melanoma was greater than 100 µM throughout. For the same compound, the TGI in the experiment with SW-620 colon and in the experiment with BT-549 breast was greater than 100 µM throughout.
With `COc1cc2c3c(n(CCCCl)c(=O)c2cc1OC)-c1ccc(C#N)cc1C3=O`, the GI50 in the experiment on NCI/ADR-RES ovarian was 22.4 µM; in the experiment with 786-0 renal it was 14.4 µM; in the experiment with MALME-3M melanoma, 2490 nM; with A549 NSCLC, 29.5 µM; with MOLT-4 leukemia, 1.68 µM; in the experiment with LOX IMVI melanoma it was 3.43 µM. The GI50 with SW-620 colon was 0.996 µM; in the experiment on BT-549 breast, 5.5 µM. Moreover, the TGI in the experiment on NCI/ADR-RES ovarian is greater than 100 µM; in the experiment on 786-0 renal, 29.4 µM; in the experiment with MALME-3M melanoma it was 74.4 µM; in the experiment with A549 NSCLC it was greater than 100 µM; in the experiment on MOLT-4 leukemia it was greater than 100 µM; in the experiment on LOX IMVI melanoma it was 19.4 µM. Moreover, the TGI in the experiment on SW-620 colon was greater than 100 µM; in the experiment with BT-549 breast, 23.6 µM.
